Earlier results in US11134689B2, “Natural volatile plant oils to repel arthropods” (Shepard Farms, LLC, priority 2011, dated 2021).

System: fruit fly (Ceratitis capitata)
Conditions: in vivo

## CC12CCC(CC1)C(C)(C)O2 [1,8-cineole]
  insecticidal activity: high insecticidal activity
